Tests used:
[1] = system: Caco-2 cells; test: Cytotoxicity study on Caco-2 cells (MTS assay); type: cell-based, Human; settings: Caco-2, 2 hour incubation
Protocol: Culture of Caco-2 cells. Caco-2 cells were grown in DMEM high glucose with L-glutamine supplemented with 10% heat inactivated fetal bovine serum, 1% penicillin (100 U/mL), streptomycin (100 micrograms/mL), and 1% NEAA solution.
Cytotoxicity study on Caco-2 cells. Cytotoxicity was determined using a MTS assay as an indicator of cell viability. Cell viability was assessed after the co-incubation of 10,000 Caco-2 cells/well on a 96-well tissue cultured plate (Costar® Corning®) with the aforementioned formulations in dispersion in culture DMEM medium supplemented with 4 mM of glutamine, 100 U/mL of penicillin, 100 microgram/mL of streptomycin and […] heat inactivated fetal bovine serum. […] The EC50 value for the different formulations were calculated from the dataset by non-linear regression analysis using GraphPad Prism.

[2] = system: human intestinal tissue (jejunal); test: Toxicity in human intestinal tissue in Ussing chambers (electrophysiology, forskolin response); settings: Ussing chamber
Source text: Toxicity and permeability in human intestinal tissue. Jejunal tissue samples were collected from patients undergoing laparoscopic Roux-en-Y gastric bypass. Patients had given full informed consent. The study has been reviewed and approved by a regional ethical review board. Tissue samples were immediately transferred into a vessel containing cold, oxygenated Krebs-Ringer buffer and quickly transported to the laboratory. Arriving, the epithelium was dissected away from sub-epithelial tissues and mounted in horizontal as well as vertically oriented Ussing chambers with 9 mm openings between the two chambers. The basolateral chamber was filled with glucose containing Krebs-Ringer buffer, while the glucose in the apical chamber was substituted with mannitol. This is to avoid SGLT-induced tight junction opening. […] Electrophysiology of the tissue was monitored throughout the experiment to assure continued tissue viability. […] Viable tissue with oxidative metabolism will form cAMP in response to forskolin leading to an opening of CFTR C1 channels, the response was monitored as changes in potential difference and short-circuit current over the epithelium. The permeability of fluorescently labeled nanoparticles was analyzed in a plate reader and the apparent permeability rate constant (Papp) was calculated.

Row | SMILES | cytotoxicity [1] | cytotoxicity sequence of tested products [1] | forskolin response [2]
1 | CC(C)CCC[C@@H](C)[C@H]1CC[C@H]2[C@@H]3CC=C4C[C@@H](OC(=O)N[C@H](CCCNC(=N)N)C(=O)N[C@H](CCCNC(=N)N)C(=O)N[C@H](CCCNC(=N)N)C(=O)N[C@H](CCCNC(=N)N)C(=O)N[C@H](CCCNC(=N)N)C(=O)N[C@H](CCCNC(=N)N)C(=O)N[C@H](CCCNC(=N)N)C(=O)N[C@H](CCCNC(=N)N)C(N)=O)CC[C@]4(C)[C@H]3CC[C@]12C [Chol-R8] | highest cytotoxicity | Chol-R8>C12-R8>ENCPs>diblock or branched PGA-PEG | –
2 | CCCCCCCCCCCC(=O)N[C@H](CCCNC(=N)N)C(=O)N[C@H](CCCNC(=N)N)C(=O)N[C@H](CCCNC(=N)N)C(=O)N[C@H](CCCNC(=N)N)C(=O)N[C@H](CCCNC(=N)N)C(=O)N[C@H](CCCNC(=N)N)C(=O)N[C@H](CCCNC(=N)N)C(=O)N[C@H](CCCNC(=N)N)C(N)=O [Formulation C12-R8] | – | Chol-R8>C12-R8>ENCPs>diblock or branched PGA-PEG | no evident change

Reference: patent US10471020B2, “Nanoparticles with protected interiors, and methods of use thereof” (Universidade de Santiago de Compostela, priority 2016, dated 2019)
